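Compound exposure: 48 hours, 5 concentrations, 96-well plates. GI50: concentration for 50% inhibition of growth.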 The source made the active and inactive calls. Rule as the data show it: active = GI50 up to about 1.1 µM and inactive = higher. Where a SMILES comes first, the peptide text is derived from it. [ ]: non-standard residue; d: D form. The star is where a group is joined. ξ: configuration not given here. NMeF = CN[CH](Cc1ccccc1)C(=O)O; ξNMe2Val = CC(C)C(C(=O)*)N(C)C; NMeV = CN[CH](C(=O)O)C(C)C; OtBu = CC(C)(C)O*
What was measured:
Assay in all cases: NCI anticancer screen, dose series, 48 h
[1] = tested on: CAKI-1
[2] = tested on: IGROV-1
[3] = tested on: KM12
[4] = tested on: RXF 393
[5] = tested on: ACHN
[6] = tested on: OVCAR-8
[7] = tested on: XF498
[8] = tested on: SK-MEL-5
[9] = tested on: HT-29
[10] = tested on: SK-MEL-2
[11] = tested on: A549
[12] = tested on: HL-60
[13] = tested on: SNB-75
[14] = tested on: HCC 2998
[15] = tested on: SF-268
[16] = tested on: SK-MEL-28
[17] = tested on: SR
[18] = tested on: HOP-92
[19] = tested on: BT-549
[20] = tested on: NCI/ADR-RES

SMILES | GI50 [1] | GI50 [2] | GI50 [3] | GI50 [4] | GI50 [5] | GI50 [6] | GI50 [7] | GI50 [8] | GI50 [9] | GI50 [10] | GI50 [11] | GI50 [12] | GI50 [13] | GI50 [14] | GI50 [15] | GI50 [16] | GI50 [17] | GI50 [18] | GI50 [19] | GI50 [20]
CCn1c(=O)c2ccccc2n2c(=O)c3cc4ccccc4cc3nc12 | > 100 µM (inactive) | > 100 µM (inactive) | > 100 µM (inactive) | 15.2 µM (inactive) | > 100 µM (inactive) | 52.2 µM (inactive) | 15.8 µM (inactive) | 63 µM (inactive) | 64.4 µM (inactive) | > 100 µM (inactive) | > 100 µM (inactive) | 91.8 µM (inactive) | 27.4 µM (inactive) | > 100 µM (inactive) | 65.6 µM (inactive) | – | – | – | – | –
CCC(Oc1ccc(OC)c2c1C(=O)CCC2)C(=O)O (configuration not stated) | – | > 100 µM (inactive) | > 100 µM (inactive) | > 100 µM (inactive) | > 100 µM (inactive) | > 100 µM (inactive) | > 100 µM (inactive) | > 100 µM (inactive) | > 100 µM (inactive) | > 100 µM (inactive) | > 100 µM (inactive) | > 100 µM (inactive) | > 100 µM (inactive) | > 100 µM (inactive) | > 100 µM (inactive) | > 100 µM (inactive) | > 100 µM (inactive) | – | – | –
CCOC(=O)C1(C(=O)OCC)CC=C(C)CC12C(=O)Nc1ccccc12 (configuration not stated) | > 100 µM (inactive) | > 100 µM (inactive) | > 100 µM (inactive) | – | > 100 µM (inactive) | > 100 µM (inactive) | > 100 µM (inactive) | > 100 µM (inactive) | > 100 µM (inactive) | > 100 µM (inactive) | > 100 µM (inactive) | > 100 µM (inactive) | > 100 µM (inactive) | > 100 µM (inactive) | > 100 µM (inactive) | > 100 µM (inactive) | – | > 100 µM (inactive) | – | –
CC1=CC2CCC1(C)C/C2=C(/C)OC=O (configuration not stated) | > 100 µM (inactive) | > 100 µM (inactive) | > 100 µM (inactive) | > 100 µM (inactive) | > 100 µM (inactive) | > 100 µM (inactive) | > 100 µM (inactive) | > 100 µM (inactive) | > 100 µM (inactive) | > 100 µM (inactive) | > 100 µM (inactive) | > 100 µM (inactive) | > 100 µM (inactive) | – | > 100 µM (inactive) | > 100 µM (inactive) | > 100 µM (inactive) | > 100 µM (inactive) | – | –
C[C@]12CC(C=O)C(=O)C(O)=C1CC[C@@H]1C2CC[C@@]2(C)C1CC[C@]2(C)O (some centres not stated) | – | 19.2 µM (inactive) | 25.5 µM (inactive) | 21.4 µM (inactive) | 22.3 µM (inactive) | 28.8 µM (inactive) | 18.2 µM (inactive) | 17.6 µM (inactive) | 4.66 µM (inactive) | 5.02 µM (inactive) | 57.4 µM (inactive) | 15.8 µM (inactive) | 20.6 µM (inactive) | 10.1 µM (inactive) | 25.4 µM (inactive) | 25.8 µM (inactive) | – | 16 µM (inactive) | – | –
Cc1nc(N)nc(CCC(=O)Nc2cccc(C(F)(F)F)c2)c1-c1ccc(Cl)cc1 | > 100 µM (inactive) | > 100 µM (inactive) | > 100 µM (inactive) | > 100 µM (inactive) | > 100 µM (inactive) | > 100 µM (inactive) | > 100 µM (inactive) | > 100 µM (inactive) | > 100 µM (inactive) | > 100 µM (inactive) | > 100 µM (inactive) | > 100 µM (inactive) | > 100 µM (inactive) | > 100 µM (inactive) | > 100 µM (inactive) | > 100 µM (inactive) | 21.6 µM (inactive) | > 100 µM (inactive) | – | –
O=c1cc(-c2ccccc2)oc2cc(OCCCCCCCCCCOc3ccc4c(=O)cc(-c5ccccc5)oc4c3)ccc12 | > 100 µM (inactive) | > 100 µM (inactive) | > 100 µM (inactive) | – | > 100 µM (inactive) | > 100 µM (inactive) | > 100 µM (inactive) | > 100 µM (inactive) | > 100 µM (inactive) | > 100 µM (inactive) | > 100 µM (inactive) | > 100 µM (inactive) | 56.1 µM (inactive) | > 100 µM (inactive) | – | > 100 µM (inactive) | > 100 µM (inactive) | > 100 µM (inactive) | – | –
C/C(=C1/CCC/C(=C(/C)c2ccccc2)C1=O)c1ccccc1 | – | 79.4 µM (inactive) | 27 µM (inactive) | 17.6 µM (inactive) | 38.6 µM (inactive) | 41.7 µM (inactive) | 30.6 µM (inactive) | 22.8 µM (inactive) | 26.4 µM (inactive) | 15.1 µM (inactive) | 31.8 µM (inactive) | 10.7 µM (inactive) | 63.1 µM (inactive) | 46.3 µM (inactive) | 45.7 µM (inactive) | 36.3 µM (inactive) | 14.6 µM (inactive) | 38.8 µM (inactive) | – | –
NC(=O)N/N=C(\CC1OC(=O)c2ccccc21)c1ccc([N+](=O)[O-])cc1 (configuration not stated) | 23.6 µM (inactive) | 23.7 µM (inactive) | 32.5 µM (inactive) | 14.9 µM (inactive) | 62.1 µM (inactive) | > 10 µM (inactive) | 26.9 µM (inactive) | 23.1 µM (inactive) | 40.6 µM (inactive) | 19.4 µM (inactive) | 38.7 µM (inactive) | 26.3 µM (inactive) | 27.1 µM (inactive) | 18 µM (inactive) | – | – | 32.7 µM (inactive) | – | – | –
CC(C)N1CCC2(CC1)NNc1ncccc1-n1cccc12 | > 100 µM (inactive) | – | > 100 µM (inactive) | – | > 100 µM (inactive) | > 100 µM (inactive) | > 100 µM (inactive) | > 100 µM (inactive) | > 100 µM (inactive) | > 100 µM (inactive) | > 100 µM (inactive) | > 100 µM (inactive) | > 100 µM (inactive) | > 100 µM (inactive) | > 100 µM (inactive) | > 100 µM (inactive) | – | – | – | –
COC(=O)C12C3C4C1C1C2C3C41I (configuration not stated) | > 100 µM (inactive) | > 100 µM (inactive) | – | > 100 µM (inactive) | > 100 µM (inactive) | > 100 µM (inactive) | > 100 µM (inactive) | > 100 µM (inactive) | > 100 µM (inactive) | – | > 100 µM (inactive) | > 100 µM (inactive) | – | > 100 µM (inactive) | > 100 µM (inactive) | > 100 µM (inactive) | – | > 100 µM (inactive) | – | –
COc1cc2cnc3c4ccccc4ccc3c2cc1OC | > 100 µM (inactive) | > 100 µM (inactive) | > 100 µM (inactive) | – | > 100 µM (inactive) | > 100 µM (inactive) | > 100 µM (inactive) | > 100 µM (inactive) | > 100 µM (inactive) | > 100 µM (inactive) | > 100 µM (inactive) | – | > 100 µM (inactive) | > 100 µM (inactive) | > 100 µM (inactive) | > 100 µM (inactive) | – | – | – | –
CCC(C)C1NC(=O)C(NC(=O)c2c3nc4c(C(=O)NC5C(=O)NC(C(C)CC)C(=O)N6CCCC6C(=O)N(C)CC(=O)N(C)C(C(C)C)C(=O)OC5C)ccc(C)c4oc-3c(C)c(=O)c2O)C(C)OC(=O)C(C(C)C)N(C)C(=O)CN(C)C(=O)C2CCCN2C1=O (configuration not stated) | 10.3 µM (inactive) | 0.239 µM (active) | 1.63 µM (inactive) | 2.54 µM (inactive) | 4.89 µM (inactive) | 1.6 µM (inactive) | – | 4.21 µM (inactive) | 1.06 µM (active) | 2.07 µM (inactive) | 2.47 µM (inactive) | 2.81 µM (inactive) | 2.62 µM (inactive) | 3.16 µM (inactive) | 3.77 µM (inactive) | 5.24 µM (inactive) | 0.119 µM (active) | 6.76 µM (inactive) | 5.81 µM (inactive) | 21.9 µM (inactive)
Cc1cc(C)c(NC(=S)NC(=O)c2ccccc2)cc1C | > 100 µM (inactive) | > 100 µM (inactive) | > 100 µM (inactive) | > 100 µM (inactive) | > 100 µM (inactive) | > 100 µM (inactive) | – | 25.2 µM (inactive) | > 100 µM (inactive) | > 100 µM (inactive) | > 100 µM (inactive) | > 100 µM (inactive) | > 100 µM (inactive) | > 100 µM (inactive) | > 100 µM (inactive) | > 100 µM (inactive) | 37.7 µM (inactive) | > 100 µM (inactive) | > 100 µM (inactive) | > 100 µM (inactive)
CC(C)C(C(=O)N(C)C(Cc1ccccc1)C(=O)N(C)C(C(=O)N(C)C(C(=O)N1CCCC1C(=O)OC(C)(C)C)C(C)C)C(C)C)N(C)C (configuration not stated) (ξNMe2Val-[NMeF][NMeV][NMeV]P-OtBu; configuration not given here) | – | 90.6 µM (inactive) | 40.6 µM (inactive) | – | 65 µM (inactive) | 97.3 µM (inactive) | 30.8 µM (inactive) | 18 µM (inactive) | 40.4 µM (inactive) | – | 71.1 µM (inactive) | 37.2 µM (inactive) | – | 22.8 µM (inactive) | 63 µM (inactive) | – | 25.4 µM (inactive) | – | – | –
CN(CCCNC(=O)c1cn(C)c2c1ccc1cc(Cl)ccc12)CCCNC(=O)c1cn(C)c2c1ccc1cc(Cl)ccc12 | 2.3 µM (inactive) | 1.46 µM (inactive) | 1.72 µM (inactive) | 1.3 µM (inactive) | 1.71 µM (inactive) | 1.82 µM (inactive) | – | 4.99 µM (inactive) | 2.05 µM (inactive) | 1.69 µM (inactive) | 2.06 µM (inactive) | 0.914 µM (active) | 1.57 µM (inactive) | 1.2 µM (inactive) | 1.72 µM (inactive) | 1.73 µM (inactive) | 2.54 µM (inactive) | 3.6 µM (inactive) | 8.99 µM (inactive) | 2.16 µM (inactive)

— ChEMBL document CHEMBL1201862, “PubChem BioAssay data set” (2004)
